From patent US9732065B2, “Cyclic aminomethyl pyrimidine derivative” (Sumitomo Dainippon Pharma Co., Ltd., priority 2013, dated 2017)

Columns and labels:
[1] = target: T1, Human dopamine D4 receptor (Homo sapiens, UniProt P21917); assay: Agonistic/antagonistic activity in G protein dependent pathway (aequorin intracellular calcium luminescence), D4; format: cell-based; parameters: expressed in transfected cells; host or cells: CHO-K1 or HEK293 cells; conditions: read-out: Maximal activity on each receptor (%): D4
T1 sequence (P21917 1-419): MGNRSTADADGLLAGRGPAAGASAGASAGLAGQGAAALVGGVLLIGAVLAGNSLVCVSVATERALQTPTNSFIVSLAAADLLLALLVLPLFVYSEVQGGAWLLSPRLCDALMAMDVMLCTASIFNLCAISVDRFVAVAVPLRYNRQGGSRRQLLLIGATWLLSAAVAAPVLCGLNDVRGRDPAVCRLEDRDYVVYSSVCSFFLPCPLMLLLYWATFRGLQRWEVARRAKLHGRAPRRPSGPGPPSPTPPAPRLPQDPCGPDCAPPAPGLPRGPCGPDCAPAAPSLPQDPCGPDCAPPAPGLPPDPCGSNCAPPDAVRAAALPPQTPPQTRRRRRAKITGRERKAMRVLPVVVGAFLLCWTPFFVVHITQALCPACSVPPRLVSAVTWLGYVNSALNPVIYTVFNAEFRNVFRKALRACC
Description: Plasmids encoding each receptor, aequorin and Gα16 were prepared, and the plasmids were transfected into CHO cells (Chinese Hamster Ovary cells) or HEK293 cells (Human Embryonic Kidney 293 cells) to prepare expressing cell lines.
The agonistic or antagonistic activity of the present compound in the G protein dependent pathway was evaluated on the basis of intracellular calcium levels as follows. CHO-K1 or HEK293 cell lines transfected with D2, D4, α1A, or α2A receptor genes were seeded in a 384-well plate, and incubated in a CO2 incubator at 37° C. for 24 hours, and then a solution of the present compound in DMSO was added into cells preloaded with coelenterazine to measure the change in luminescent signals with a FDSS (Hamamatsu Photonics K.K.). […] The agonistic activity of the present compound was calculated according to the measured luminescent signals, as the maximal activity (Emax) of the present compound. On the other hand, the antagonistic activity of the present compound was calculated according to the luminescent signals in wells with 10 μM of an endogenous ligand alone defined as 100%, as the inhibitory activity of the present compound to an endogenous ligand. EC50 value was calculated as the concentration of the present compound required to achieve a 50% response, and IC50 was calculated as the concentration of the present compound required to achieve a 50% inhibition of the Emax of an endogenous ligand.

[2] = PK study in rat (bioavailability); format: in vivo; conditions: plasma, oral vs intravenous administration
Description: In this study, the pharmacokinetics of the present compound can be evaluated. Specifically, a 7-week-old SD-type or WKY-type rat received the intravenous administration of a solution of the present compound in saline or the oral administration of a suspension of the present compound in carboxymethylcellulose or methylcellulose. Blood was collected from the rat at each time below.
Intravenous administration: 5 minutes, 15 minutes, 30 minutes, 1 hour, 2 hours, 4 hours, 6 hours, and 24 hours after administration
Oral administration: 15 minutes, 30 minutes, 1 hour, 2 hours, 4 hours, 6 hours, and 24 hours after administration
Plasma was collected from the blood, the levels of the present compound in the plasma were measured by a LC-MS method, and then the pharmacokinetic parameters were calculated on the basis of the level changes.

[3] = Brain penetration study in rat; format: in vivo; conditions: brain and plasma, unbound brain-to-plasma drug concentration ratio
Description: In this study, the brain penetration of the present compound can be evaluated. Specifically, a 7-week-old SD-type or WKY-type rat received the subcutaneous administration of a solution of the present compound in saline or the oral administration of a suspension of the present compound in methylcellulose. Plasma and brain were collected from the treated rat 0.5 hour, 1 hour or 2 hours after the administration, and then the levels of the present compound in the plasma and the brain were measured by a LC-MS method.
The protein binding ratios of the present compound to the plasma and the brain were measured by an equilibrium dialysis method.
The levels of the present compound in the plasma and the brain as well as the plasma and brain protein binding ratios are applied to the following formula, and thus Kp,uu,brain (Unbound brain-to-plasma drug concentration ratio) can be calculated. Kp,uu,brain=(level of the present compound in the brain×(100−brain protein binding ratio (%))/100)/(level of the present compound in the plasma×(100−plasma protein binding ratio (%))/100)

Row | Emax at 1 µM [1] [%] | Compound | other results
1 | 54 | Nc1nc(C2CC2)ncc1CN1CCC(c2cccnc2)CC1 [Example 20] | 
2 | 105 | Nc1nc(C2CCCC2)ncc1CN1CCC(c2ccccn2)CC1 [Example 23] | 
3 | 103 | Nc1nc(C2CCCC2)ncc1CN1CCC(c2cccnc2)CC1 [Example 24] | 
4 | 66 | CNc1nc(C)ncc1CN1CCC(c2ccccn2)CC1 [Example 27] | 
5 | 62 | CNc1nc(C)ncc1CN1CCC(c2cccnc2)CC1 [Example 28] | 
6 | 82 | Cc1ncc(CN2CCC(c3ccccn3)CC2)cn1 [Example 31] | 
7 | 68 | Cc1ncc(CN2CCC(c3cccnc3)CC2)cn1 [Example 32] | 
8 | 82 | Nc1ncc(CN2CCC(c3ccccn3)CC2)cn1 [Example 36] | bioavailability [2]: 67.2%; Kp uu [3]: 2.28
9 | 51 | Cc1ncc(CN2CCC(c3ccccn3)CC2C)c(N)n1 (stereo not shown) [Example 38, 2-Methyl-5-[2-methyl-4-(pyridin-2-yl)piperidin-1-ylmethyl]pyrimidin-4-amine] | 
10 | 49 | Cc1ncc(CN2CCC(c3cccnc3)CC2C)c(N)n1 (stereo not shown) [Example 39, 2-Methyl-5-[2-methyl-4-(pyridin-3-yl)piperidin-1-ylmethyl]pyrimidin-4-amine] | 
11 | 72 | Cc1ncc(CN2CCC(c3ccccn3)C(C)C2)c(N)n1 (stereo not shown) [Example 40, 2-Methyl-5-[3-methyl-4-(pyridin-2-yl)piperidin-1-ylmethyl]pyrimidin-4-amine] | 
12 | 59 | Cc1ncc(CN2CCC(c3cccnc3)C(C)C2)c(N)n1 (stereo not shown) [Example 41, 2-Methyl-5-[3-methyl-4-(pyridin-3-yl)piperidin-1-ylmethyl]pyrimidin-4-amine] | 
13 | 71 | Cc1ncc(CN2CCCC(c3ccccn3)CC2)c(N)n1 (stereo not shown) [Example 42, 2-Methyl-5-[4-(pyridin-2-yl)azepan-1-ylmethyl]pyrimidin-4-amine] | 
14 | 92 | Cc1ncc(CN2CCCC(c3cccnc3)CC2)c(N)n1 (stereo not shown) [Example 43, 2-Methyl-5-[4-(pyridin-3-yl)azepan-1-ylmethyl]pyrimidin-4-amine] | 
15 | 51 | Cc1ncc(CN2CCC(c3nccs3)CC2)c(N)n1 [Example 47, 2-Methyl-5-[4-(1,3-thiazol-2-yl)piperidin-1-ylmethyl]pyrimidin-4-amine] | 
16 | 62 | Cc1ncc(CN2CCC(c3cncc(F)c3)CC2)c(C)n1 [Example 48, 5-[4-(5-Fluoropyridin-3-yl)piperidin-1-ylmethyl]-2,4-dimethylpyrimidine] | 
17 | 66 | Cc1cncc(C2CCN(Cc3cnc(C)nc3N)CC2)c1 [Example 53] | 
18 | 62 | Cc1ccnc(C2CCN(Cc3cnc(C)nc3N)CC2)c1 [Example 57, 2-Methyl-5-[4-(4-methylpyridin-2-yl)piperidin-1-ylmethyl]pyrimidin-4-amine] | 

Further lines, the molecule ahead of its results:

Row | Compound | Emax at 1 µM [1] [%] | other results
19 | Cc1ncc(CN2CC=C(c3ccccn3)CC2)c(N)n1 [Example 1, 5-(3′,6′-Dihydro-2,4′-bipyridin-1′(2′H)-ylmethyl)-2-methylpyrimidin-4-amine] | 62 | 
20 | Cc1ncc(CN2CC=C(c3ncccc3F)CC2)c(N)n1 [Example 3, 5-(3-Fluoro-3′,6′-dihydro-2,4′-bipyridin-1′(2′H)-ylmethyl)-2-methylpyrimidin-4-amine] | 69 | 
21 | Cc1ncc(CN2CC=C(c3cncc(F)c3)CC2)c(N)n1 [Example 4, 5-(5-Fluoro-3′,6′-dihydro-3,4′-bipyridin-1′(2′H)-ylmethyl)-2-methylpyrimidin-4-amine] | 65 | 
22 | Cc1ncc(CN2CCC(c3cccnc3)CC2)c(N)n1 [Example 6, 2-Methyl-5-[4-(pyridin-3-yl)piperidin-1-ylmethyl]pyrimidin-4-amine] | 63 | 
23 | Cc1ncc(CN2CCC(c3cncc(F)c3)CC2)c(N)n1 [Example 7, 5-[4-(5-Fluoropyridin-3-yl)piperidin-1-ylmethyl]-2-methylpyrimidin-4-amine] | 64 | 
24 | Cc1ncc(CN2CCC(c3nccc4ccccc34)CC2)c(N)n1 [Example 8] | 62 | 
25 | Cc1ncc(CN2CCC(c3cc4ccccc4cn3)CC2)c(N)n1 [Example 9, 5-[4-(Isoquinolin-3-yl)piperidin-1-ylmethyl]-2-methylpyrimidin-4-amine] | 70 | 
26 | CCc1ncc(CN2CC=C(c3ccccn3)CC2)c(N)n1 [Example 10, 5-(3′,6′-Dihydro-2,4′-bipyridin-1′(2′H)-ylmethyl)-2-ethylpyrimidin-4-amine] | 110 | 
27 | CCc1ncc(CN2CC=C(c3cccnc3)CC2)c(N)n1 [Example 11] | 93 | 
28 | CCc1ncc(CN2CCC(c3ccccn3)CC2)c(N)n1 [Example 12] | 101 | 
29 | CCc1ncc(CN2CCC(c3cccnc3)CC2)c(N)n1 [Example 13] | 81 | 
30 | CC(C)c1ncc(CN2CC=C(c3ccccn3)CC2)c(N)n1 [Example 14] | 87 | 
31 | CC(C)c1ncc(CN2CC=C(c3cccnc3)CC2)c(N)n1 [Example 15] | 131 | 
32 | CC(C)c1ncc(CN2CCC(c3cccnc3)CC2)c(N)n1 [Example 16] | 78 | 
33 | Nc1nc(C2CC2)ncc1CN1CC=C(c2ccccn2)CC1 [Example 17] | 72 | 
34 | Nc1nc(C2CC2)ncc1CN1CC=C(c2cccnc2)CC1 [Example 18] | 58 | 

Row | Compound | Emax at 1 µM [1] [%] | other results
35 | Nc1nc(C2CC2)ncc1CN1CCC(c2ccccn2)CC1 [Example 19] | 64 | 
36 | Nc1nc(C2CCCC2)ncc1CN1CC=C(c2ccccn2)CC1 [Example 21] | 93 | 
37 | Nc1nc(C2CCCC2)ncc1CN1CC=C(c2cccnc2)CC1 [Example 22] | 72 | 
38 | CNc1nc(C)ncc1CN1CC=C(c2ccccn2)CC1 [Example 25] | 71 | 
39 | CNc1nc(C)ncc1CN1CC=C(c2cccnc2)CC1 [Example 26] | 75 | 
40 | Cc1ncc(CN2CC=C(c3ccccn3)CC2)cn1 [Example 29, 1′-[(2-Methylpyrimidin-5-yl)methyl]-1′,2′,3′,6′-tetrahydro-2,4′-bipyridine] | 107 | 
41 | Cc1ncc(CN2CC=C(c3cccnc3)CC2)cn1 [Example 30] | 86 | 
42 | Nc1ncc(CN2CC=C(c3ccccn3)CC2)cn1 [Example 34, 5-(3′,6′-Dihydro-2,4′-bipyridin-1′(2′H)-ylmethyl)pyrimidin-2-amine] | 93 | 
43 | Nc1ncc(CN2CC=C(c3cccnc3)CC2)cn1 [Example 35] | 86 | 
44 | Cc1ncc(CN2CC=C(c3cccnc3)CC2)c(C)n1 [Example 49] | 66 | 
45 | Cc1ncc(CN2CC=C(c3ccccn3)CC2)c(C)n1 [Example 50] | 70 | 
46 | Cc1ccnc(C2=CCN(Cc3cnc(C)nc3N)CC2)c1 [Example 51] | 88 | 
47 | Cc1cccc(C2=CCN(Cc3cnc(C)nc3N)CC2)n1 [Example 52] | 67 | 
48 | Cc1cncc(C2=CCN(Cc3cnc(C)nc3N)CC2)c1 [Example 54] | 60 | 
49 | Cc1ncc(CN2CC=C(c3cc(Cl)ccn3)CC2)c(N)n1 [Example 55] | 88 | 
50 | Cc1ncc(CN2CC=C(c3cccc(Cl)n3)CC2)c(N)n1 [Example 56] | 40 | 
